Measured values taken from PubChem BioAssay (NCI).
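The compound was tested at five concentrations on cells cultured in 96-well plates, with a 48-hour exposure period. TGI: concentration producing complete growth inhibition.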

Key:
Assay in all cases: growth of human tumour cells (NCI), 48 h
786-0 renal = system: 786-0 renal
A498 renal = system: A498 renal
A549 NSCLC = system: A549 NSCLC
ACHN renal = system: ACHN renal
BT-549 breast = system: BT-549 breast
CCRF-CEM leukemia = system: CCRF-CEM leukemia
DU-145 prostate = system: DU-145 prostate
EKVX NSCLC = system: EKVX NSCLC
HCT-116 colon = system: HCT-116 colon
HCT-15 colon = system: HCT-15 colon
HL-60(TB) leukemia = system: HL-60(TB) leukemia
HOP-62 NSCLC = system: HOP-62 NSCLC
HOP-92 NSCLC = system: HOP-92 NSCLC
HS 578T breast = system: HS 578T breast
HT29 colon = system: HT29 colon
IGROV1 ovarian = system: IGROV1 ovarian
K-562 leukemia = system: K-562 leukemia
KM12 colon = system: KM12 colon
LOX IMVI melanoma = system: LOX IMVI melanoma
M14 melanoma = system: M14 melanoma
MALME-3M melanoma = system: MALME-3M melanoma
MCF7 breast = system: MCF7 breast
MDA-MB-231 breast = system: MDA-MB-231 breast
MDA-MB-435 = system: MDA-MB-435
MDA-N = system: MDA-N
MOLT-4 leukemia = system: MOLT-4 leukemia
NCI-H226 lung = system: NCI-H226 lung
NCI-H23 lung = system: NCI-H23 lung
NCI-H460 lung = system: NCI-H460 lung
OVCAR-3 ovarian = system: OVCAR-3 ovarian
OVCAR-5 ovarian = system: OVCAR-5 ovarian
OVCAR-8 ovarian = system: OVCAR-8 ovarian
PC-3 prostate = system: PC-3 prostate
RPMI-8226 leukemia = system: RPMI-8226 leukemia
RXF 393 renal = system: RXF 393 renal
SF-268 CNS = system: SF-268 CNS
SF-295 CNS = system: SF-295 CNS
SF-539 CNS = system: SF-539 CNS
SK-MEL-2 melanoma = system: SK-MEL-2 melanoma
SK-MEL-28 melanoma = system: SK-MEL-28 melanoma
SK-MEL-5 melanoma = system: SK-MEL-5 melanoma
SK-OV-3 ovarian = system: SK-OV-3 ovarian
SN12C renal = system: SN12C renal
SNB-19 CNS = system: SNB-19 CNS
SNB-75 CNS = system: SNB-75 CNS
SR leukemia = system: SR leukemia
SW-620 colon = system: SW-620 colon
T-47D breast = system: T-47D breast
TK-10 renal = system: TK-10 renal
U251 CNS = system: U251 CNS
UACC-257 melanoma = system: UACC-257 melanoma
UACC-62 melanoma = system: UACC-62 melanoma
UO-31 renal = system: UO-31 renal
CAKI-1 renal = system: CAKI-1 renal
COLO 205 colon = system: COLO 205 colon
NCI-H522 lung = system: NCI-H522 lung
NCI/ADR-RES ovarian = system: NCI/ADR-RES ovarian
OVCAR-4 ovarian = system: OVCAR-4 ovarian

Structure (SMILES): O=C(CN1CCOCC1)NC1=Nc2ncccc2C(=O)NN1
- TGI (786-0 renal): > 10 µM
- TGI (A498 renal): > 10 µM
- TGI (A549 NSCLC): > 10 µM
- TGI (ACHN renal): > 10 µM
- TGI (BT-549 breast): > 10 µM
- TGI (CCRF-CEM leukemia): > 10 µM
- TGI (DU-145 prostate): > 10 µM
- TGI (EKVX NSCLC): > 10 µM
- TGI (HCT-116 colon): > 10 µM
- TGI (HCT-15 colon): > 10 µM
- TGI (HL-60(TB) leukemia): > 10 µM
- TGI (HOP-62 NSCLC): > 10 µM
- TGI (HOP-92 NSCLC): > 10 µM
- TGI (HS 578T breast): > 10 µM
- TGI (HT29 colon): > 10 µM
- TGI (IGROV1 ovarian): > 10 µM
- TGI (K-562 leukemia): > 10 µM
- TGI (KM12 colon): > 10 µM
- TGI (LOX IMVI melanoma): > 10 µM
- TGI (M14 melanoma): > 10 µM
- TGI (MALME-3M melanoma): > 10 µM
- TGI (MCF7 breast): > 10 µM
- TGI (MDA-MB-231 breast): > 10 µM
- TGI (MDA-MB-435): > 10 µM
- TGI (MDA-N): > 10 µM
- TGI (MOLT-4 leukemia): > 10 µM
- TGI (NCI-H226 lung): > 10 µM
- TGI (NCI-H23 lung): > 10 µM
- TGI (NCI-H460 lung): > 10 µM
- TGI (OVCAR-3 ovarian): > 10 µM
- TGI (OVCAR-5 ovarian): > 10 µM
- TGI (OVCAR-8 ovarian): > 10 µM
- TGI (PC-3 prostate): > 10 µM
- TGI (RPMI-8226 leukemia): > 10 µM
- TGI (RXF 393 renal): > 10 µM
- TGI (SF-268 CNS): > 10 µM
- TGI (SF-295 CNS): > 10 µM
- TGI (SF-539 CNS): > 10 µM
- TGI (SK-MEL-2 melanoma): > 10 µM
- TGI (SK-MEL-28 melanoma): > 10 µM
- TGI (SK-MEL-5 melanoma): > 10 µM
- TGI (SK-OV-3 ovarian): > 10 µM
- TGI (SN12C renal): > 10 µM
- TGI (SNB-19 CNS): > 10 µM
- TGI (SNB-75 CNS): > 10 µM
- TGI (SR leukemia): > 10 µM
- TGI (SW-620 colon): > 10 µM
- TGI (T-47D breast): > 10 µM
- TGI (TK-10 renal): > 10 µM
- TGI (U251 CNS): > 10 µM
- TGI (UACC-257 melanoma): > 10 µM
- TGI (UACC-62 melanoma): > 10 µM
- TGI (UO-31 renal): > 10 µM

Structure (SMILES): CCOC(=O)c1c(SCC#N)n(-c2ccccc2)c(=S)n(-c2ccccc2)c1=O
- TGI (786-0 renal): > 100 µM
- TGI (A549 NSCLC): > 100 µM
- TGI (ACHN renal): > 100 µM
- TGI (BT-549 breast): > 100 µM
- TGI (CAKI-1 renal): > 100 µM
- TGI (CCRF-CEM leukemia): > 100 µM
- TGI (COLO 205 colon): > 100 µM
- TGI (DU-145 prostate): > 100 µM
- TGI (EKVX NSCLC): > 100 µM
- TGI (HCT-116 colon): > 100 µM
- TGI (HCT-15 colon): > 100 µM
- TGI (HL-60(TB) leukemia): > 100 µM
- TGI (HOP-62 NSCLC): > 100 µM
- TGI (HOP-92 NSCLC): 93.3 µM
- TGI (HS 578T breast): > 100 µM
- TGI (HT29 colon): > 100 µM
- TGI (IGROV1 ovarian): > 100 µM
- TGI (K-562 leukemia): > 100 µM
- TGI (KM12 colon): > 100 µM
- TGI (LOX IMVI melanoma): > 100 µM
- TGI (M14 melanoma): > 100 µM
- TGI (MALME-3M melanoma): > 100 µM
- TGI (MCF7 breast): > 100 µM
- TGI (MDA-MB-435): > 100 µM
- TGI (MDA-N): > 100 µM
- TGI (MOLT-4 leukemia): 67.6 µM
- TGI (NCI-H226 lung): > 100 µM
- TGI (NCI-H23 lung): > 100 µM
- TGI (NCI-H460 lung): > 100 µM
- TGI (NCI-H522 lung): > 100 µM
- TGI (NCI/ADR-RES ovarian): > 100 µM
- TGI (OVCAR-3 ovarian): > 100 µM
- TGI (OVCAR-4 ovarian): > 100 µM
- TGI (OVCAR-5 ovarian): > 100 µM
- TGI (OVCAR-8 ovarian): > 100 µM
- TGI (PC-3 prostate): > 100 µM
- TGI (RPMI-8226 leukemia): > 100 µM
- TGI (SF-268 CNS): > 100 µM
- TGI (SF-295 CNS): > 100 µM
- TGI (SK-MEL-2 melanoma): > 100 µM
- TGI (SK-MEL-28 melanoma): > 100 µM
- TGI (SK-MEL-5 melanoma): > 100 µM
- TGI (SK-OV-3 ovarian): > 100 µM
- TGI (SN12C renal): > 100 µM
- TGI (SNB-19 CNS): > 100 µM
- TGI (SNB-75 CNS): 90.3 µM
- TGI (SR leukemia): > 100 µM
- TGI (SW-620 colon): > 100 µM
- TGI (T-47D breast): > 100 µM
- TGI (TK-10 renal): > 100 µM
- TGI (U251 CNS): > 100 µM
- TGI (UACC-257 melanoma): > 100 µM
- TGI (UACC-62 melanoma): > 100 µM
- TGI (UO-31 renal): > 100 µM
